# Source: patent publication US20150105252A1, “SUBSTITUTED PYRAZOLES AS HERBICIDES” (E I DU PONT DE NEMOURS AND COMPANY, priority 2013, published 2015)
# Legend:
# [1] = system: foxtail, giant; test: Test C postemergence; assay type: in vivo, Setaria faberii; conditions: for Plant response rating, Foxtail, Giant: postemergence
# Procedure, shortened: (§1)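 Herbicidal effect is expressed as percent visual control (0–100) judged against untreated plants 13 to 15 days after treatment in the greenhouse. Preemergence pots contained seeds in a soil–sand blend; postemergence plants, 2–18 cm tall, grew in peat-based planting medium.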
# [2] = system: lambsquarters; test: Test C postemergence; assay type: in vivo, Chenopodium album; conditions: for Plant response rating, Lambsquarters: postemergence
# Procedure, shortened: as §1
# [3] = system: pigweed; test: Test C preemergence; assay type: in vivo, Amaranthus retroflexus
# Procedure, shortened: as §1
# [4] = system: corn; test: Test C preemergence; assay type: in vivo, Zea mays
# Procedure, shortened: as §1
# [5] = system: johnsongrass; test: Test C postemergence; assay type: in vivo, Sorghum halepense; conditions: for Plant response rating, Johnsongrass: postemergence
# Procedure, shortened: as §1
# [6] = system: blackgrass; test: Test C preemergence; assay type: in vivo, Alopecurus myosuroides
# Procedure, shortened: as §1
# [7] = system: wheat; test: Test C preemergence; assay type: in vivo, Triticum aestivum
# Procedure, shortened: as §1
# [8] = system: soybean; test: Test C preemergence; assay type: in vivo, Glycine max
# Procedure, shortened: as §1
# [9] = system: galium; test: Test C preemergence; assay type: in vivo, Galium aparine
# Procedure, shortened: as §1
# [10] = system: ragweed; test: Test C preemergence; assay type: in vivo, Ambrosia elation
# Procedure, shortened: as §1
# [11] = system: velvetleaf; test: Test A postemergence; assay type: in vivo, Abutilon theophrasti
# Procedure, shortened: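 Pre- and postemergence greenhouse test; loam+sand; cpd in non-phytotox. solvent/surfactant; post at 1–2 leaf, 2–10 cm; visual score ~10 d, 0 = none, 100 = complete control.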
# [12] = system: chickweed; test: Test C postemergence; assay type: in vivo, Stellaria media; conditions: for Plant response rating, Chickweed: postemergence
# Procedure, shortened: as §1
# [13] = system: wheat; test: Test C postemergence; assay type: in vivo, Triticum aestivum; conditions: postemergence
# Procedure, shortened: as §1
# [14] = Postemergence, 31 g ai/ha, scale 0 to 100
# [15] = 250 g ai/ha, scale 0 to 100 (0 no effect, 100 complete control)
# [16] = 62 g ai/ha, scale 0 to 100, 0 no effect, 100 complete control
# [17] = 125 g ai/ha, scale 0 to 100, 0 no effect, 100 complete control
# [18] = preemergence, 31 g ai/ha, scale 0 to 100 (0 no effect, 100 complete control), 13 to 15 days
# [19] = preemergence, 62 g ai/ha, 13 to 15 days, scale 0 to 100, 0 = no effect, 100 = complete control
# [20] = preemergence, 125 g ai/ha, scale 0 to 100, 0 is no effect, 100 is complete control
smiles,measurement,setting,value
CCc1cc(C(=O)NOC(C)C)nn1Cc1cccc(OC(F)(F)F)c1 [Compound 70],"Foxtail, Giant plant response rating",[1]; [14],5
same,"Plant response rating, Foxtail, Giant",[1]; [15],25
same,"Plant response rating, Foxtail, Giant",[1]; [16],10
same,"Plant response rating, Foxtail, Giant",[1]; [17],15
same,Lambsquarters plant response rating,[2]; [14],75
same,"Plant response rating, Lambsquarters",[2]; [15],98
same,"Plant response rating, Lambsquarters",[2]; [16],95
same,"Plant response rating, Lambsquarters",[2]; [17],95
same,"Plant response rating (scale of 0 to 100), Pigweed","[3]; Preemergence, 250 g ai/ha",100
same,Pigweed plant response rating,[3]; [18],100
same,"Plant response rating, Pigweed",[3]; [19],100
same,Pigweed plant response rating,[3]; [20],100
same,"Plant response rating (scale of 0 to 100), Corn","[4]; Preemergence, 250 g ai/ha",85
same,Corn plant response rating,[4]; [18],40
same,"Plant response rating, Corn",[4]; [19],60
same,Corn plant response rating,[4]; [20],70
same,Johnsongrass plant response rating,[5]; [14],0
same,"Plant response rating, Johnsongrass",[5]; [15],75
same,"Plant response rating, Johnsongrass",[5]; [16],0
same,"Plant response rating, Johnsongrass",[5]; [17],10
same,"Plant response rating (scale of 0 to 100), Blackgrass","[6]; Preemergence, 250 g ai/ha",85
same,Blackgrass plant response rating,[6]; [18],65
same,"Plant response rating, Blackgrass",[6]; [19],65
same,Blackgrass plant response rating,[6]; [20],65
same,"Plant response rating (scale of 0 to 100), Wheat","[7]; Preemergence, 250 g ai/ha",75
same,Wheat plant response rating,[7]; [18],5
same,"Plant response rating, Wheat",[7]; [19],10
same,Wheat plant response rating,[7]; [20],65
same,"Plant response rating (scale of 0 to 100), Soybean","[8]; Preemergence, 250 g ai/ha",75
same,Soybean plant response rating,[8]; [18],5
same,"Plant response rating, Soybean",[8]; [19],15
same,Soybean plant response rating,[8]; [20],70
same,"Plant response rating (scale of 0 to 100), Galium","[9]; Preemergence, 250 g ai/ha",98
same,Galium plant response rating,[9]; [18],65
same,"Plant response rating, Galium",[9]; [19],95
same,Galium plant response rating,[9]; [20],98
same,"Plant response rating (scale of 0 to 100), Ragweed","[10]; Preemergence, 250 g ai/ha",40
same,Ragweed plant response rating,[10]; [18],0
same,"Plant response rating, Ragweed",[10]; [19],25
same,Ragweed plant response rating,[10]; [20],30
same,Velvetleaf plant response rating,"[11]; Postemergence, 500 g ai/ha, visual rating after approx. 10 days, 0 to 100 scale (0 no effect, 100 complete control)",90
same,Velvetleaf plant response rating,"[11]; postemergence, 125 g ai/ha, about 10 days, visual rating on 0 to 100 scale (0 no effect, 100 complete control)",80
same,Chickweed plant response rating,[12]; [14],45
same,"Plant response rating, Chickweed",[12]; [15],65
same,"Plant response rating, Chickweed",[12]; [16],45
same,"Plant response rating, Chickweed",[12]; [17],50
same,Wheat plant response rating,"[13]; 62 g ai/ha, scale 0 to 100",15
same,"Plant response rating, Wheat",[13]; [15],25
same,"Plant response rating, Wheat",[13]; [17],20
